Results from patent US20240033349A1, “VACCINE AND METHOD OF PROTECTION AGAINST CORONAVIRUS INFECTION” (priority 2020, published 2024).

Columns and labels:
[1] = tested on: SARS-Cov virus (strain SARS-Covktp3); design: species or system mice; conditions: mouse, in vivo
[2] = tested on: MERS-CovN3/Jordanp3 virus; design: species or system mice; conditions: mouse, in vivo
[3] = tested on: virus of Venezuelan equine encephalomyelitis, strain Trinidad; design: species or system mice; conditions: mouse, in vivo
[4] = tested on: new coronavirus infection COVID-19; conditions: human, in vivo
SARS-Cov-2 = conditions: human, in vivo
[5] = clinical examples, unlike other phthalhydrazide derivatives

## Nc1cccc2c(=O)[nH][nH]c(=O)c12.[Na] [Tamerit, 5-amino-1,2,3,4-tetrahydrophthalazine-1,4-dione sodium salt]
[1]
  Protection effect: 50%
[2]
  Protection effect: 50%
[3]
  Survival rate higher than in animals immunized only with VVE: 25-30%
  Survival rate of infected mice depending on the infecting dose: 60-100%
[4]
  Development of early pulmonary fibrosis by computed tomography: not observed in any patient
  Indications for artificial lung ventilation: none of the observed patients treated with Tamerit had indications for artificial lung ventilation
  Infection with COVID-19 after contact with the patients: No one of them got infected
  Reduction of duration of clinical manifestations of the acute phase of the disease: 1.5-2 weeks
  Time to complete regression of symptoms: 3 to 4 days
SARS-Cov-2
  Control MSCT of the chest organs: pronounced positive dynamics
  Dynamics of clinical and laboratory data: rapid positive dynamics of clinical and laboratory data
  MSCT grade of lung lesion: CT-2.
  SARS-Cov-2 RNA test: not detected.
  ferritin: ferritin-973.3 ng/ml
  interleukin-6: 924.6 pg/mL,
[5]
  Toxic, cumulative, mutagenic or teratogenic effects: no toxic, cumulative, mutagenic or teratogenic effects
